Experimental data taken from patent publication US7208505B2, “β3 adrenergic agonists” (Eli Lilly and Company, priority 2001, dated 2007).

These compounds were tested against T1, human β3 adrenergic receptor (Homo sapiens, UniProt P13945) (assay: whole cell receptor coupled c-AMP assay (Emax relative to isoproterenol)). Conditions: % intrinsic activity: maximal response divided by isoproterenol maximal response times 100; transfected CHO cells; average of at least 3 runs.
T1 construct: expressed in transfected cells
T1 sequence (P13945 whole entry): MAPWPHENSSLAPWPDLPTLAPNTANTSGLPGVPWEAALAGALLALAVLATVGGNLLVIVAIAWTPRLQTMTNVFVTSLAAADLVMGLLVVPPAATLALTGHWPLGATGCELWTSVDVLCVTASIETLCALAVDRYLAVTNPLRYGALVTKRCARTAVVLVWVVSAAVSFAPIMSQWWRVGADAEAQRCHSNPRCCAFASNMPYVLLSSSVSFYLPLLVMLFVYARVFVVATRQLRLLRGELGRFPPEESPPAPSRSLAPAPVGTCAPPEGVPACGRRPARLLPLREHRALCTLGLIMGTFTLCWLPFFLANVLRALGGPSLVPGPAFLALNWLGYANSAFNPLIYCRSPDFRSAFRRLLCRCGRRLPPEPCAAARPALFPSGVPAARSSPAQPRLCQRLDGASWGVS
Assay type: cell-based
Description: The genes encoding the human β1-adrenergic receptor (Frielle et al., Proc. Natl. Acad. Sci., 84:7920–7924, 1987), the human β2-adrenergic receptor (Kobika et al., Proc. Natl. Acad. Sci., 84:46–50, 1987, Emorine et al., Proc. Natl. Acad. Sci., 84:6995–6999, 1987) and the human β3 adrenergic receptor (Granneman et al., Molecular Pharmacology, 44(2):264–70, 1993) are individually subcloned into a phd expression vector (Grinnell et al., Bio/Technology, 5:1189–1192, 1987) and transfected into the DXB-11 Chinese hamster ovary (CHO) cell line by calcium phosphate precipitation methodology. The stably transfected cells are grown to 95% confluency in 95% Dulbecco's modified Eagles Medium (DMEM), 5% fetal bovine serum and 0.01% proline. Media is removed and the cells are washed with phosphate buffered (pH 7.4) saline (without magnesium and calcium). Cells are then lifted using an enzyme free cell dissociation solution (Specialty Media, Lavallette, N.J.) and pelleted by centrifugation.
Cells from each of the above cell lines are resuspended and added (20,000/well) to a 96-well plate. Cells are incubated at 37° C. with representative compounds of the invention for 20 minutes in buffer (Hank's balanced salt solution, 10 mM HEPES, 0.1% BSA, 1 mM L-ascorbic acid, 0.2% dimethyl sulfoxide, 1 mM 3-isobutyl-1-methylxanthine, pH 7.4). After halting the incubation with quench buffer (50 mM Na Acetate, 0.25% Triton X-100, pH 5.8), the c-AMP level is quantified by scintillation proximity assay (SPA) using a modification of the commercially available c-AMP kit (Amersham, Arlington Heights, Ill.) with rabbit anti-cAMP antibody (ICN Biomedicals, Aurora, Ohio) for the kit.
Sigmoidal dose response curves, from the whole cell receptor coupled c-AMP assay are fit to a four parameter logistic equation using non linear regression: y=(a−d)/(1+(Dose/c)^b)+d where a and d are responses at zero and maximal dose, b is the slope factor and c is the EC50 as previously described (DeLean et al., Am. J. Physiol., 235, E97-E102, 1978). EC50 is assessed as the concentration producing 50% of the maximum response to each agonist.
Isoproterenol is accepted in the art as a non-selective β3 agonist and is widely used as a comparator in evaluating the activity of compounds. See Trends in Pharm. Sci., 15:3, 1994. The % intrinsic activity (Emax) of representative compounds of the invention is assessed relative to isoproterenol by the compound's maximal response divided by the isoproterenol maximal response times 100.
With `CC(C)(Cc1c[nH]c2ccccc12)NC[C@H](O)COc1ccccc1-c1ccon1` [Example 164] the “Emax (%) ± SEM” value was 53.9 ± 2.6%. In the case of `CC(C)(Cc1c[nH]c2ccccc12)NC[C@H](O)COc1ccccc1-c1cscn1` [Example 79], the “Emax (%) ± SEM” value is reported as 58.2 ± 2.3%. With `CC(C)(Cc1c[nH]c2c(-c3cccc(C(F)(F)F)c3)cccc12)NC[C@H](O)COc1ccccc1-c1cccs1` [Example 37] the “Emax (%) ± SEM” value was 82.0 ± 4.3%. In the case of `CCOC(=O)c1cccc(-c2cccc3c(CC(C)(C)NC[C@H](O)COc4ccccc4-c4cccs4)c[nH]c23)c1` [Example 40], the “Emax (%) ± SEM” value is reported as 73.3 ± 4.6%. `CC(C)(Cc1c[nH]c2ccccc12)NC[C@H](O)COc1ccccc1-c1ncco1` [Example 33] was tested, and the “Emax (%) ± SEM” value was 75.9 ± 1.9%. In the case of `CC(C)(Cc1c[nH]c2c(C(N)=O)cccc12)NC[C@H](O)COc1ccccc1-c1ccon1` [Example 175], the “Emax (%) ± SEM” value is reported as 41.1 ± 3.5%. In the case of `CC(C)(Cc1c[nH]c2c(OCC#N)cccc12)NC[C@H](O)COc1ccccc1-c1ccon1` [Example 133], the “Emax (%) ± SEM” value is reported as 60.6 ± 2.4%. `CC(C)(Cc1c[nH]c2c(C=CC#N)cccc12)NCC(O)COc1ccccc1-c1cccs1` (centres unmarked) [Example 143] was tested, and the “Emax (%) ± SEM” value was 66.4 ± 8.7%. For `CC(C)(Cc1c[nH]c2cccc(F)c12)NC[C@H](O)COc1ccccc1-c1ccon1` [Example 166], the “Emax (%) ± SEM” value was 47.8 ± 0.6%. `Cc1ccc(-c2ccccc2OC[C@@H](O)CNC(C)(C)Cc2c[nH]c3ccccc23)s1.O=C(O)C(F)(F)F` [Example 13] was tested, and the “Emax (%) ± SEM” value was 63.4 ± 0.3%. For `C[C@H](Cn1ccc2ccccc21)NC[C@H](O)COc1ccccc1-c1ccon1` [Example 165], the “Emax (%) ± SEM” value was 37.1 ± 4.0%. `CCOC(=O)c1cccc(-c2cccc3c(CC(C)(C)NC[C@H](O)COc4ccccc4-c4ccon4)c[nH]c23)c1` [Example 41] was tested, and the “Emax (%) ± SEM” value was 73.1 ± 1.0%. `CC(C)(Cc1c[nH]c2c(C=Cc3cnccn3)cccc12)NC[C@H](O)COc1ccccc1-c1cccs1` [Example 188] was tested, and the “Emax (%) ± SEM” value was 70.5 ± 3.8%. With `C[C@H](Cn1ccc2ccc(OCC#N)cc21)NC[C@H](O)COc1ccccc1-c1cccs1` [Example 67] the “Emax (%) ± SEM” value was 28.6 ± 3.4%. In the case of `CC(C)(Cc1c[nH]c2c(OCC#N)cccc12)NC[C@H](O)COc1ccccc1-c1ccsc1.Cl` [Example 52], the “Emax (%) ± SEM” value is reported as 74.0 ± 3.1%. `CC(=O)Nc1ccc(-c2cccc3c(CC(C)(C)NC[C@H](O)COc4ccccc4-c4cccs4)c[nH]c23)cc1` [Example 179] was tested, and the “Emax (%) ± SEM” value was 71.5 ± 1.1%. With `CC(C)(Cc1c[nH]c2cc(OCC#N)ccc12)NC[C@H](O)COc1ccccc1-c1cccs1` [Example 168] the “Emax (%) ± SEM” value was 62.1 ± 3.3%. `CC(C)(Cc1c[nH]c2cc(F)ccc12)NC[C@H](O)COc1ccccc1-c1nccs1` [Example 159] was tested, and the “Emax (%) ± SEM” value was 53.0 ± 1.8%. With `COC(=O)CCc1cccc2c(CC(C)(C)NC[C@H](O)COc3ccccc3-c3cccs3)c[nH]c12` [Example 145] the “Emax (%) ± SEM” value was 79.3 ± 7.1%. For `CC(C)(Cc1c[nH]c2ccccc12)NC[C@H](O)COc1ccccc1-c1csc(C#N)c1.O=C(O)C(F)(F)F` [Example 15], the “Emax (%) ± SEM” value was 50.2 ± 7.3%. With `CC(C)(NC[C@H](O)COc1ccccc1-c1ccon1)C(=O)N1CCc2ccccc21` [Example 193] the “Emax (%) ± SEM” value was 32.0 ± 5.5%. In the case of `CC(C)(Cc1c[nH]c2c(OCC#N)cccc12)NC[C@H](O)COc1ccccc1-c1ccon1` [Example 132], the “Emax (%) ± SEM” value is reported as 53.6 ± 1.4%. For `CC(C)(Cc1c[nH]c2ccccc12)NC[C@H](O)COc1ccccc1-c1cc(C#N)cs1.O=C(O)C(F)(F)F` [Example 19], the “Emax (%) ± SEM” value was 49.1 ± 4.6%. For `CC(C)(Cc1c[nH]c2c(-c3ccc(C(F)(F)F)cc3C(F)(F)F)cccc12)NC[C@H](O)COc1ccccc1-c1ccon1` [Example 111], the “Emax (%) ± SEM” value was 86.0 ± 4.0%. With `CC(C)(Cc1c[nH]c2c(NS(C)(=O)=O)cccc12)NC[C@H](O)COc1ccccc1-c1cccs1` [Example 27] the “Emax (%) ± SEM” value was 81.0 ± 3.2%. For `CC(=O)c1cccc(-c2cccc3c(CC(C)(C)NC[C@H](O)COc4ccccc4-c4ccon4)c[nH]c23)c1` [Example 47], the “Emax (%) ± SEM” value was 69.2 ± 2.0%. In the case of `COC(=O)c1ccc(-c2ccccc2OC[C@@H](O)CNC(C)(C)Cc2c[nH]c3ccccc23)s1` [Example 124], the “Emax (%) ± SEM” value is reported as 36.1 ± 7.6%. With `COC(=O)c1ccc2[nH]cc(CC(C)(C)NC[C@H](O)COc3ccccc3-c3cccs3)c2c1` [Example 70] the “Emax (%) ± SEM” value was 37.3 ± 2.7%. In the case of `C[C@@H](NC[C@H](O)COc1ccccc1-c1cccs1)C(=O)N1CCc2ccccc21` [Example 131], the “Emax (%) ± SEM” value is reported as 23.6 ± 1.7%. In the case of `CC(C)(Cc1c[nH]c2c(-c3cccc(C(F)(F)F)c3)cccc12)NC[C@H](O)COc1ccccc1-c1ccon1` [Example 38], the “Emax (%) ± SEM” value is reported as 78.0 ± 2.8%. In the case of `CC(C)(Cc1c[nH]c2c(OCC(N)=O)cccc12)NC[C@H](O)COc1ccccc1-n1cccc1` [Example 3], the “Emax (%) ± SEM” value is reported as 68.9 ± 2.6%. In the case of `CC(C)(Cc1c[nH]c2ccc(OCC#N)cc12)NC[C@H](O)COc1ccccc1-c1cccs1` [Example 169], the “Emax (%) ± SEM” value is reported as 51.9 ± 3.4%. With `CC(=O)Nc1ccc(-c2cccc3c(CC(C)(C)NC[C@H](O)COc4ccccc4-c4ccon4)c[nH]c23)cc1` [Example 183] the “Emax (%) ± SEM” value was 47.7 ± 1.6%. For `COC(=O)c1ccc(-c2cccc3c(CC(C)(C)NC[C@H](O)COc4ccccc4-c4cccs4)c[nH]c23)cc1` [Example 178], the “Emax (%) ± SEM” value was 72.5 ± 2.2%. `CC(C)(Cc1c[nH]c2ccccc12)NC[C@H](O)COc1ccc(F)cc1-c1ccno1` [Example 81] was tested, and the “Emax (%) ± SEM” value was 35.1 ± 2.1%. For `COC(=O)c1ccc(Oc2cccc3c(CC(C)(C)NC[C@H](O)COc4ccccc4-c4cccs4)c[nH]c23)nc1` [Example 117], the “Emax (%) ± SEM” value was 67.6 ± 3.9%. In the case of `CC(C)(CNC(=O)c1c[nH]c2ccccc12)NC[C@H](O)COc1ccccc1-c1cccs1` [Example 73], the “Emax (%) ± SEM” value is reported as 32.1 ± 3.3%.

Same assay, conditions: CHO, % intrinsic activity relative to isoproterenol; transfected CHO cells
`C[C@@H](CN1CCc2cc(F)c(Cl)cc21)NC[C@H](O)COc1ccccc1-c1cccs1` [Example 195] was tested, and the Emax was 8.9%.

Same assay, conditions: CHO, % intrinsic activity: maximal response divided by isoproterenol maximal response times 100; transfected CHO cells; average of at least 3 runs
For `CC(C)(Cc1c[nH]c2c(-c3cccc(C(=O)O)c3)cccc12)NC[C@H](O)COc1ccccc1-c1cccs1` [Example 248], the Emax was 84.1 ± 1.8%. `CC(C)(Cc1c[nH]c2c(/C=C/c3nnn[nH]3)cccc12)NC[C@H](O)COc1ccccc1-c1cccs1` [Example 230] was tested, and the Emax was 81.3 ± 2.4%. For `CC(C)(CC1=CCc2c(Oc3ccc(C(N)=O)cn3)cccc21)NC[C@H](O)COc1ccccc1-c1cccs1` [Example 219], the Emax was 85.9 ± 9.4%. `CC(C)(Cc1c[nH]c2c(CCC(=O)O)cccc12)NC[C@H](O)COc1ccccc1-c1cccs1` [Example 228] was tested, and the Emax was 79.5 ± 0.6%. With `CC(C)(Cc1c[nH]c2cc(C(=O)O)ccc12)NC[C@H](O)COc1ccccc1-c1cccs1` [Example 240] the Emax was 78.7 ± 2.4%. `CC(C)(Cc1c[nH]c2c(OCC#N)cccc12)NC[C@H](O)COc1ccccc1-n1cccc1` [Example 256] was tested, and the Emax was 71.4 ± 2.7%. In the case of `CC(C)(Cc1c[nH]c2c(OCC3=NCCS3)cccc12)NC[C@H](O)COc1ccccc1-c1cccs1` [Example 231], the Emax is reported as 85 ± 4.9%. For `CC(C)(Cc1c[nH]c2c(CCc3ccc(S(N)(=O)=O)cc3)cccc12)NC[C@H](O)COc1ccccc1-c1cccs1` [Example 254], the Emax was 80.9 ± 4.9%. Work on `C[C@H](Cn1ccc2cc(C(=O)O)ccc21)NC[C@H](O)COc1ccccc1-c1cccs1` [Example 243] yielded an Emax of 48.4 ± 2.5%. Work on `CC(C)(Cc1c[nH]c2c(OCC(=O)O)cccc12)NC[C@H](O)COc1ccccc1-c1ccon1` [Example 223] yielded an Emax of 56.1 ± 2.8%. `CC(C)(Cc1c[nH]c2c(/C=C/C(=O)O)cccc12)NC[C@H](O)COc1ccccc1-c1cccs1` [Example 227] showed an Emax of 87.5 ± 7.5%. Work on `CC(C)(Cc1c[nH]c2c(CCc3nnn[nH]3)cccc12)NC[C@H](O)COc1ccccc1-c1cccs1` [Example 232] yielded an Emax of 79.5 ± 1.7%.
